Laboratory results taken from US11447466B2, “Substituted indole compounds useful as inhibitors of TLR7/8/9” (BRISTOL-MYERS SQUIBB COMPANY, priority 2017, dated 2022).

Key:
Format in all cases: cell-based
[1] = molecular target: T1, human TLR7 (Homo sapiens, UniProt Q9NYK1); test: TLR7 inhibition reporter assay (HEK-Blue SEAP reporter, gardiquimod stimulation); conditions: HEK-Blue cells overexpressing human TLR7, SEAP reporter, gardiquimod 7.5 μM, 22 hour incubation
T1 construct: host or cells: HEK-Blue cells
T1 sequence (Q9NYK1 27-1049): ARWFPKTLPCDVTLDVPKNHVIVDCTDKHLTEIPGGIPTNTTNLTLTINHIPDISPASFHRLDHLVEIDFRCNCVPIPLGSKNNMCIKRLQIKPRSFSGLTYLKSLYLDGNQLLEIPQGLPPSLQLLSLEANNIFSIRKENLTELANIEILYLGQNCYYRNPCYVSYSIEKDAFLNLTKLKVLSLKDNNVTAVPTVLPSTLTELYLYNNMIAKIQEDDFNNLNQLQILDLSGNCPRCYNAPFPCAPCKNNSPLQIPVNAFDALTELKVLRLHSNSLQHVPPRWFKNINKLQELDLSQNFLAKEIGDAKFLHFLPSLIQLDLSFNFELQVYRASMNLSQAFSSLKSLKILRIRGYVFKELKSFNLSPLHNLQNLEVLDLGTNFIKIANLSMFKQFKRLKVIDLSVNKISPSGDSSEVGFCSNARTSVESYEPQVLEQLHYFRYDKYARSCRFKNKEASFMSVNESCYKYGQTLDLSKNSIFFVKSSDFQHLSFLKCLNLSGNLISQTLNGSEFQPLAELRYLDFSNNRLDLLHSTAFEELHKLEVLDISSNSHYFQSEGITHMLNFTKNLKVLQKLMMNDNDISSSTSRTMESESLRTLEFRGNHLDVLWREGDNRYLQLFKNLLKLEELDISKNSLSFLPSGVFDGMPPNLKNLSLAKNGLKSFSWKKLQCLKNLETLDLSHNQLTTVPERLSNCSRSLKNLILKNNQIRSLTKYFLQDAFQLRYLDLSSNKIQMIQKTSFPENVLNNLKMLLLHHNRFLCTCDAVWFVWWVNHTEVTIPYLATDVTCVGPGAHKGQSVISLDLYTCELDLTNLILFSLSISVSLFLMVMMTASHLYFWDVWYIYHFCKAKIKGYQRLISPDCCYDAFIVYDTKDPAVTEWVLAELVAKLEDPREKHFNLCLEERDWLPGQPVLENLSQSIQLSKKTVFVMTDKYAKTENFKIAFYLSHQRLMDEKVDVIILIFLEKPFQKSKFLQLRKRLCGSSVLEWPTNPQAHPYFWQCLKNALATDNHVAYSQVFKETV
Protocol: (§1) TLR7/8/9 Inhibition Reporter Assays
(§2) HEK-Blue™-cells (Invivogen) overexpressing human TLR7, TLR8 or TLR9 receptors were used for screening inhibitors of these receptors using an inducible SEAP (secreted embryonic alkaline phosphatase) reporter gene under the control of the IFN-β minimal promoter fused to five NF-κB and AP-1-binding sites. Briefly, cells are seeded into Greiner 384 well plates (15000 cells per well for TLR7, 20,000 for TLR8 and 25,000 for TLR9) and then treated with test compounds in DMSO to yield a final dose response concentration range of 0.05 nM-50 μM. After a 30 minute compound pre-treatment at room temperature, the cells are then stimulated with a TLR7 ligand (gardiquimod at a final concentration of 7.5 μM), TLR8 ligand (R848 at a final concentration of 15.9 μM) or TLR9 ligand (ODN2006 at a final concentration of 5 nM) to activate NF-κB and AP-1 which induce the production of SEAP. After a 22 hour incubation at 37° C., 5% CO2, SEAP levels are determined with the addition of HEK-Blue™ Detection reagent (Invivogen), a cell culture medium that allows for detection of SEAP, according to manufacturer's specifications. The percent inhibition is determined as the % reduction in the HEK-Blue signal present in wells treated with agonist plus DMSO alone compared to wells treated with a known inhibitor.

[2] = molecular target: T2, human TLR9 (Homo sapiens, UniProt Q9NR96); test: TLR9 inhibition reporter assay (HEK-Blue SEAP reporter, ODN2006 stimulation); conditions: HEK-Blue cells overexpressing human TLR9, SEAP reporter, ODN2006 5 nM, 22 hour incubation
T2 construct: host or cells: HEK-Blue cells
T2 sequence (Q9NR96 26-1032): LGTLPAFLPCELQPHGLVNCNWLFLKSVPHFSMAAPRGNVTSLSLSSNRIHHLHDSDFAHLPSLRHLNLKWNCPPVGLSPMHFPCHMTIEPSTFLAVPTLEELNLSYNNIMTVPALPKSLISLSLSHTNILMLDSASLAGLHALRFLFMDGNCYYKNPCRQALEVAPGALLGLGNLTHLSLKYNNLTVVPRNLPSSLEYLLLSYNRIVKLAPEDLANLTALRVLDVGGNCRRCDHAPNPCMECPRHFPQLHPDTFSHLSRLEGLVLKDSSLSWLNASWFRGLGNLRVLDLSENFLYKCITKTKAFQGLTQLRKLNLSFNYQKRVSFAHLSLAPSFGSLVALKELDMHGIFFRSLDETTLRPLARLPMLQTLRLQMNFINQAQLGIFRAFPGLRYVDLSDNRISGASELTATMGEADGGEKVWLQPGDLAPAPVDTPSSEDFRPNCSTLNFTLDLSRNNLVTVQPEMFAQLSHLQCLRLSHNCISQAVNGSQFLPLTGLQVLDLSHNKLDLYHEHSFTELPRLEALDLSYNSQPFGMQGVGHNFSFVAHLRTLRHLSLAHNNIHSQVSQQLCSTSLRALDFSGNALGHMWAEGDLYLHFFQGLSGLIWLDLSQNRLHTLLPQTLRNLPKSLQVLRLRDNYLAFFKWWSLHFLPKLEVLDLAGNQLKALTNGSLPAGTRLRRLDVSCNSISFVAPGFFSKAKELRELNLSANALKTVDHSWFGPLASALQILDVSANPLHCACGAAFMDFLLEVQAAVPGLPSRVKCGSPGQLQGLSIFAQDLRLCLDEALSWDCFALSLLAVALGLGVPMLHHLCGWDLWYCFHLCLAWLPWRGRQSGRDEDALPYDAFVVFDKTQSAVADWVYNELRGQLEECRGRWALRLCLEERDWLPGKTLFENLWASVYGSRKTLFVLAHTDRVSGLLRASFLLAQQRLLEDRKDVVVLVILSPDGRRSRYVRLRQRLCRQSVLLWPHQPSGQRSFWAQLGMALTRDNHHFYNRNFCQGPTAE
Protocol: as §1, §2

[3] = molecular target: T3, human TLR8 (Homo sapiens, UniProt Q9NR97); test: TLR8 inhibition reporter assay (HEK-Blue SEAP reporter, R848 stimulation); conditions: HEK-Blue cells overexpressing human TLR8, SEAP reporter, R848 15.9 μM, 22 hour incubation
T3 construct: host or cells: HEK-Blue cells
T3 sequence (Q9NR97 27-1041): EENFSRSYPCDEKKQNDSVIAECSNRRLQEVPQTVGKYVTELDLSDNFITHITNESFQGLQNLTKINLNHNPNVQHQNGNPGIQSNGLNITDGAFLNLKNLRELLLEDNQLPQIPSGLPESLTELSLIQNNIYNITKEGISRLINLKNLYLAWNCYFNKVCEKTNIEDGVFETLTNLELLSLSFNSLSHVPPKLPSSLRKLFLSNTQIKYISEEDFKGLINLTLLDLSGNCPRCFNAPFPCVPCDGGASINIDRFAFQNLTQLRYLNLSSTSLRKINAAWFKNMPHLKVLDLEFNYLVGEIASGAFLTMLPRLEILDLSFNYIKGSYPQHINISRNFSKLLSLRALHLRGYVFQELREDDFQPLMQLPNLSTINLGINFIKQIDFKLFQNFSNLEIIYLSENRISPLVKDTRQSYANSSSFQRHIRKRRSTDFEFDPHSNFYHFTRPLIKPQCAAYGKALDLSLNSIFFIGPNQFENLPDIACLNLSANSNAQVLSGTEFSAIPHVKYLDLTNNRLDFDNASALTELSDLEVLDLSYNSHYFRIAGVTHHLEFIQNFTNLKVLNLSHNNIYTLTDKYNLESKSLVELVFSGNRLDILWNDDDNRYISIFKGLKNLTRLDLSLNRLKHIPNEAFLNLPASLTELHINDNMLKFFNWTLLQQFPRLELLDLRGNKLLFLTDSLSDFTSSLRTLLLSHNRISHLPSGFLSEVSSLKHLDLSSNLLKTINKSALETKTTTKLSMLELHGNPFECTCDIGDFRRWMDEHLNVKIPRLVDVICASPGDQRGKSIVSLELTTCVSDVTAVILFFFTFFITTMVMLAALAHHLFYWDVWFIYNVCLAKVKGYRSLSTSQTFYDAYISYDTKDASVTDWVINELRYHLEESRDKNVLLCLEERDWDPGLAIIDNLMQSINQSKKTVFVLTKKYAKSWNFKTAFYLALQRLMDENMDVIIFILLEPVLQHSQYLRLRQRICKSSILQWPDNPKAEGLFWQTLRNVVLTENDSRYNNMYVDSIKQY
Protocol: as §1, §2

Compound | IC50 [1] | IC50 [2] | IC50 [3]
Cc1nc(-c2[nH]c3ccc(C4CCNCC4)cc3c2C(C)C)cn(C)c1=O [Example 12, 5-(3-isopropyl-5-(piperidin-4-yl)-1H-indol-2-yl)-1,3-dimethylpyrazin-2(1H)-one] | 24.7 nM | 5230 nM | 29 nM
CC(C)c1c(-c2cc(F)c(=O)n(C)c2)[nH]c2ccc(C3CCNCC3)cc12 [Example 13, 3-fluoro-5-(3-isopropyl-5-(piperidin-4-yl)-1H-indol-2-yl)-1-methylpyridin-2(1H)-one] | 18.2 nM | 593 nM | 33.9 nM
Cc1c(-c2[nH]c3ccc(C4CCNCC4)cc3c2C(C)C)cn(C)c(=O)c1C [Example 14, 5-(3-isopropyl-5-(piperidin-4-yl)-1H-indol-2-yl)-1,3,4-trimethylpyridin-2(1H)-one] | 3.5 nM | 1650 nM | 3.6 nM
CCn1cc(-c2[nH]c3ccc(C4CCNCC4)cc3c2C(C)C)cc(C)c1=O [Example 15, 1-ethyl-5-(3-isopropyl-5-(piperidin-4-yl)-1H-indol-2-yl)-3-methylpyridin-2(1H)-one] | 1.9 nM | 179 nM | 3.3 nM
CC(C)c1c(-c2ccc(=O)n(C(C)C)c2)[nH]c2ccc(C3CCNCC3)cc12 [Example 16, 1-isopropyl-5-(3-isopropyl-5-(piperidin-4-yl)-1H-indol-2-yl)pyridin-2(1H)-one] | 302 nM | 914 nM | 173 nM
Cc1c(-c2[nH]c3ccc(C4CCNCC4)cc3c2C(C)C)nn(C)c(=O)c1C [Example 17, 6-(3-isopropyl-5-(piperidin-4-yl)-1H-indol-2-yl)-2,4,5-trimethylpyridazin-3(2H)-one] | 21.1 nM | 597 nM | 12.2 nM
CCn1nc(-c2[nH]c3ccc(C4CCNCC4)cc3c2C(C)C)cc(C)c1=O [Example 18, 2-ethyl-6-(3-isopropyl-5-(piperidin-4-yl)-1H-indol-2-yl)-4-methylpyridazin-3(2H)-one] | 18.3 nM | 6650 nM | 14.7 nM
Cc1c(-c2[nH]c3ccc(C4CCNCC4)cc3c2C(C)C)cn(C)c(=O)c1N [Example 19, 3-amino-5-(3-isopropyl-5-(piperidin-4-yl)-1H-indol-2-yl)-1,4-dimethylpyridin-2(1H)-one] | 25.7 nM | 792 nM | 39.7 nM
COc1cc(-c2[nH]c3ccc(C4CCNCC4)cc3c2C(C)C)cn(C)c1=O [Example 20, 5-(3-isopropyl-5-(piperidin-4-yl)-1H-indol-2-yl)-3-methoxy-1-methylpyridin-2(1H)-one] | 6 nM | 1790 nM | 17 nM
CC(C)c1c(-c2cn(C)c(=O)n(C)c2=O)[nH]c2ccc(C3CCNCC3)cc12 [Example 21, 5-(3-isopropyl-5-(piperidin-4-yl)-1H-indol-2-yl)-1,3-dimethylpyrimidine-2,4(1H,3H)-dione] | 105 nM | 6540 nM | 263 nM
CC(C)c1c(-c2cc(Cl)c(=O)n(C)c2)[nH]c2ccc(C3CCNCC3)cc12 [Example 22, 3-chloro-5-(3-isopropyl-5-(piperidin-4-yl)-1H-indol-2-yl)-1-methylpyridin-2(1H)-one] | 1.1 nM | 2550 nM | 10.7 nM
Cc1c(-c2[nH]c3ccc(C4CCNCC4)cc3c2C(C)C)cc(C#N)c(=O)n1C [Example 23, 5-(3-isopropyl-5-(piperidin-4-yl)-1H-indol-2-yl)-1,6-dimethyl-2-oxo-1,2-dihydropyridine-3-carbonitrile] | 62.8 nM | 6270 nM | 15.1 nM
Cc1c(-c2[nH]c3ccc(C4CCNCC4)cc3c2C(C)C)cn(C)c(=O)c1C#N [Example 24, 5-(3-isopropyl-5-(piperidin-4-yl)-1H-indol-2-yl)-1,4-dimethyl-2-oxo-1,2-dihydropyridine-3-carbonitrile] | 75.9 nM | 3760 nM | 10.7 nM
CCc1cc(-c2[nH]c3ccc(C4CCNCC4)cc3c2C(C)C)c(C)n(C)c1=O [Example 25, 3-ethyl-5-(3-isopropyl-5-(piperidin-4-yl)-1H-indol-2-yl)-1,6-dimethylpyridin-2(1H)-one] | 40.3 nM | 1370 nM | 7.8 nM
